Literature values as cited in paper PMC8339258 (Frontiers in Pharmacology, 2021).

## CC#CCn1c(N2CCC[C@@H](N)C2)nc2c1c(=O)n(Cc1nc(C)c3ccccc3n1)c(=O)n2C [linagliptin, (R)-8-(3-Amino-piperidin-1-yl)-7-but-2-ynyl-3-methyl-1-(4-methyl-quinazolin-2-ylmethyl)-3,7-dihydro-purine-2,6-dione]
Comparison in discussion, ref not given
  t1/2: > 100 h
Ref Hüttner et al., 2008, Heise et al., 2009, Blech al., 2010, Sarashina et al.
  terminal half-life: 142 h
